This note sets out measurements from patent publication US6399570B1, “Antimicrobial/endotoxin neutralizing polypeptide” (priority 1999, dated 2002).

Broadly, the IC50 is the point on the concentration scale where inhibition reaches its midpoint.

For the assay, the system named is P. aer. LPS. The experiment in a line: Limulus ELISA, ENC50 against P. aer. LPS. The following applies: endotoxin 200 EU/ml; mean +/− SD. It is filed as biochemical, Pseudomonas aeruginosa. The procedure:
The peptide-mediated inhibition of endotoxin-induced Limulus amebocyte lysate (LAL) coagulation was measured with a sensitive LAL assay (Zhang et al., J. Clin. Microbiol. 32: 416-422 (1994)). Limulus ELISA is an endotoxin assay based on activation of the LAL coagulation by endotoxin and detection of the generated peptide-C immunoreactivity with an ELISA using a monoclonal antibody to the polypeptide. Endotoxin was defined to be neutralized when it lost its ability to activate the LAL enzymes. The 50% endotoxin-neutralizing concentration (ENC50) reflects the potency of an anti-endotoxin agent; a low ENC50 indicates high potency. Table 2 lists the determined ENC50 value of each anti-endotoxin agent against lipid A and four different types of LPS. The potency of each anti-endotoxin agent varied depending on the type of endotoxin. […] The only difference between the sequence of LF-33 and LF-27 is that LF-27 lacks the first six residues (GRRRRS) at the N-terminus of LF-33. Remarkably, this deletion led to dramatic loss of the endotoxin-neutralizing capacity of the polypeptide in this assay. Binding of serum proteins to endotoxin neutralizes the endotoxin activity in this assay by preventing endotoxin from activating LAL (Emancipator et al., Infect. Immun. 60: 596-601 (1992)).
LPS. […] LPS (purity >99%) from Neisseria meningitidis was prepared from the group B strain #6275 and its potency was 25 EU/ng. […] The potency of the above endotoxin was determined with the Limulus enzyme-linked immunosorbent assay (ELISA, 43) in comparison with US Pharmacopeia reference standard endotoxin EC-5.
Briefly, 25 μl endotoxin solution (200 EU/ml) was mixed with an equal volume of test materials in a series of two-fold dilution in 0.15 M NaCl in a sterile 96-well tissue culture plate (Nunc A/S, Roskilde, Denmark), and incubated at 37° C. for 1 h in a dry-air incubator. […] The endotoxin activity was then quantified with the use of Limulus ELISA (Zhang et al., J. Clin. Microbiol. 32: 416-422 (1994)). […] The high sensitivity of the assay allowed for very low levels of the endotoxin activity to be detected. […]

Turning to `CSCC[C@H](NC(=O)[C@H](CC(N)=O)NC(=O)[C@H](CCCNC(=N)N)NC(=O)[C@H](CCC(N)=O)NC(=O)[C@H](Cc1c[nH]c2ccccc12)NC(=O)[C@H](CCC(N)=O)NC(=O)[C@H](Cc1ccccc1)NC(=O)[C@H](CS)NC(=O)[C@H](CCCCN)NC(=O)[C@@H](NC(=O)[C@H](C)NC(=O)[C@H](CCC(=O)O)NC(=O)[C@@H]1CCCN1C(=O)[C@H](CCC(N)=O)NC(=O)[C@H](CO)NC(=O)[C@@H](NC(=O)[C@H](C)NC(=O)[C@H](CS)NC(=O)[C@H](Cc1c[nH]c2ccccc12)NC(=O)[C@H](CCC(N)=O)NC(=O)[C@@H](N)C(C)C)C(C)C)[C@@H](C)O)C(=O)N[C@@H](CCCNC(=N)N)C(=O)N[C@@H](CCCCN)C(=O)N[C@H](C(=O)N[C@@H](CCCNC(=N)N)C(=O)NCC(=O)N1CCC[C@H]1C(=O)O)C(C)C` [LF-27], the “ENC50 against P. aer. LPS” value is on record as “no detectable activity” and the IC50 is more than 300 µM.
